Broadly, the IC50 is the concentration needed to halve the response being measured.

In one experiment the target is EGFR L858R (Homo sapiens (Human), UniProt P00533, L858R). The experiment can be described thus: Biochemical EGFR inhibition assay, EGFR L858R. As to conditions: Caliper mobility shift; 1.0 mM ATP or ATP Km; read-out: Enz EGFR_L858R IC50.
A further experiment addresses EGFR (d746-750) (Homo sapiens (Human), UniProt P00533, DEL746-750). As to the kind of experiment: Biochemical EGFR inhibition assay, EGFR (d746-750). The following applies: Caliper mobility shift; 1.0 mM ATP or ATP Km; read-out: Enz EGFR_Exon19-del746-750 IC50.
The target in experiment [1] is pEGFR (Tyr1068) in PC-9 cells (Ex19Del) (Homo sapiens (Human), UniProt P00533, DEL746-750). The experiment can be described thus: PC-9 pEGFR AlphaLISA assay. The format is cell-based. As to conditions: 4 hours incubation, p-EGFR (Tyr1068) AlphaLISA, read-out: Ext pEGFR_PC-9 Ex19Del IC50. In outline: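 Readout: AlphaLISA SureFire Ultra signal in cell lysates, with acceptor beads for 1.5-2 h and donor beads overnight at room temperature in the dark. Beforehand, unstimulated cells in 10% FBS medium received compounds (10 points, 4-fold steps) for 4 h at 37° C. IC50 came from percent inhibition curves.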
pEGFR (Tyr1068) in PC-9 cells (Ex19Del), sequence (P00533 other isoform, or with tags, fused parts or gaps del 746-750): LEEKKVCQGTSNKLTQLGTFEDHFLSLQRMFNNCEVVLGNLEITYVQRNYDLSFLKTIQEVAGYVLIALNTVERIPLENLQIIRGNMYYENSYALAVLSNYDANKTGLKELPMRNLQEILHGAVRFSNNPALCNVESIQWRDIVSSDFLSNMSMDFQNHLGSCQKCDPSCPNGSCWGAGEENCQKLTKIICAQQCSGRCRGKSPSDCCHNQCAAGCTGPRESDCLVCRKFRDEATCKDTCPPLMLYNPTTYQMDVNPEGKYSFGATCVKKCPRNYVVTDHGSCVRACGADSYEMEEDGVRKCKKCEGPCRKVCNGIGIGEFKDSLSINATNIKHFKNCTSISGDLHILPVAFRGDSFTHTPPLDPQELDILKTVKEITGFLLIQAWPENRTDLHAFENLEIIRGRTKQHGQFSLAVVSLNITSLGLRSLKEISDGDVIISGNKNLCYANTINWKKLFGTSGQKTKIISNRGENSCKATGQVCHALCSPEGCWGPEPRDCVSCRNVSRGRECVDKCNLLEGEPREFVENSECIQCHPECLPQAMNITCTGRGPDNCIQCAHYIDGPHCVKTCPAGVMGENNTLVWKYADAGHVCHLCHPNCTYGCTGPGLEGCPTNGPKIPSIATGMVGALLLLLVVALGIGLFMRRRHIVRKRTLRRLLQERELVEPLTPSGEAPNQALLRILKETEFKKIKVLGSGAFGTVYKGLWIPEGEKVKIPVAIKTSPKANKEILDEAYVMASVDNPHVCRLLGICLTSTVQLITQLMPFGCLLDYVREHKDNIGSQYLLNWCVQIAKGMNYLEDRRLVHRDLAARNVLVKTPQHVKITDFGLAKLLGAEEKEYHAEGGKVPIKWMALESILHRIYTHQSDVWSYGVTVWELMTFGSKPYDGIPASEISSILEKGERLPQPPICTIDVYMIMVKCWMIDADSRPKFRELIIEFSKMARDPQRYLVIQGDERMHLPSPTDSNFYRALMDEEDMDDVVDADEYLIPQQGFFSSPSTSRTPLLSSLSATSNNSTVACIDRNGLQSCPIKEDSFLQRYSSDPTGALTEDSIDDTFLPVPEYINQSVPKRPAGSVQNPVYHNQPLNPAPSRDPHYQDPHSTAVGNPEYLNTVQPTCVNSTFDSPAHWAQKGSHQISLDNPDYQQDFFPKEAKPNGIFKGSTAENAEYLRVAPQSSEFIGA
A general note: Alpha assays give light when donor and acceptor beads are brought close together.

EGFR L858R, sequence (P00533 25-1210 L858R): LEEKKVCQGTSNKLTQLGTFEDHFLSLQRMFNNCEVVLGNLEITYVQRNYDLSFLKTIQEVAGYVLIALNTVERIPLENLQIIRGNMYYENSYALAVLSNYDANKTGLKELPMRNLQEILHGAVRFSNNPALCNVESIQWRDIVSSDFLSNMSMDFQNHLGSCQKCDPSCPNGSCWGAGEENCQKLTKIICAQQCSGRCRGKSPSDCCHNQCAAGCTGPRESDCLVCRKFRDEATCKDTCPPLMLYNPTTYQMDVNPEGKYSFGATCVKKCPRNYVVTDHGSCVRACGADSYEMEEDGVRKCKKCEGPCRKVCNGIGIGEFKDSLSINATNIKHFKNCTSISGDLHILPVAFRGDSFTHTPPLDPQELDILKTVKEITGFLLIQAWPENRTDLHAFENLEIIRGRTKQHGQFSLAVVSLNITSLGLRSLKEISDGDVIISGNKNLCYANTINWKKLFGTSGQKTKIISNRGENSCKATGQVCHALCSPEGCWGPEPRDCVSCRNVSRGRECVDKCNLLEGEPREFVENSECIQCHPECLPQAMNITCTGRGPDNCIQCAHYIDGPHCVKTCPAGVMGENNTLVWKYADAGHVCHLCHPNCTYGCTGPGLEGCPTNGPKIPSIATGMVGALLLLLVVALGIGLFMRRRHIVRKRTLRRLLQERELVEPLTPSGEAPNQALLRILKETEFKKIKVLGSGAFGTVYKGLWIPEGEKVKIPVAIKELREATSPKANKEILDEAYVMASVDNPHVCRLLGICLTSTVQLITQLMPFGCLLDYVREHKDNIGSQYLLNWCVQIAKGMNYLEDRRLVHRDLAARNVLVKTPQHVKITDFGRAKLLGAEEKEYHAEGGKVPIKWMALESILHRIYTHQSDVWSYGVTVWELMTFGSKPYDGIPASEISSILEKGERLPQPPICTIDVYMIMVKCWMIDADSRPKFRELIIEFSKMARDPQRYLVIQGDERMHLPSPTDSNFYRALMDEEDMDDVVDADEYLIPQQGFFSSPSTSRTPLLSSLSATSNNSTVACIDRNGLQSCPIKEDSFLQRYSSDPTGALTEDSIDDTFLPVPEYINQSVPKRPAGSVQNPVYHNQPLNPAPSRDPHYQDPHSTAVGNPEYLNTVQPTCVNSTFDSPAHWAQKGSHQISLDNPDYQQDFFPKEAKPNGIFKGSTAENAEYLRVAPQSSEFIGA
EGFR (d746-750), sequence (P00533 other isoform, or with tags, fused parts or gaps del 1-694/del 746-750 limits assumed): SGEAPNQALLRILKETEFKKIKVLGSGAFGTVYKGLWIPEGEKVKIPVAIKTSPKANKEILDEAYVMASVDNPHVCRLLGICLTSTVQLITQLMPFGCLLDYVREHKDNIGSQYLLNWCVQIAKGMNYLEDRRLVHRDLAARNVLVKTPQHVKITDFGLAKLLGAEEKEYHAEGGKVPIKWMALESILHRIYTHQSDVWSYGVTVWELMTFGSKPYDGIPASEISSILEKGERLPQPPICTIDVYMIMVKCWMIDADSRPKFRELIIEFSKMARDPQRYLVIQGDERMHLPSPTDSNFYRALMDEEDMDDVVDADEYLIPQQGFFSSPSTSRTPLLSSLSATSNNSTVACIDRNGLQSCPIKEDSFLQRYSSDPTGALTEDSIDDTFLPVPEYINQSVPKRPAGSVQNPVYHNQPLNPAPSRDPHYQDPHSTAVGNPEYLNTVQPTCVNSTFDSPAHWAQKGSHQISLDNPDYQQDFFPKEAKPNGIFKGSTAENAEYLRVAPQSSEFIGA

Regarding `COc1cc2ncnc(-c3cn(C)nc3-c3ccccc3)c2c(F)c1NC(=O)C1CCC1` [Example 295, N-(5-fluoro-7-methoxy-4-(1-methyl-3-phenyl-1H-pyrazol-4-yl)quinazolin-6-yl)cyclobutanecarboxamide], the IC50 worked out at 4.6 nM at EGFR L858R, 2.1 nM on EGFR (d746-750) and 5.3 nM in experiment [1].
For `CCn1cc(-c2ncnc3cc(OC)c(NC(=O)[C@]45COC[C@H]4C5)cc23)c(-c2ccccc2F)n1` (mixture of isomers) [Example 263, (1S,5S)—N-(4-(1-ethyl-3-(2-fluorophenyl)-1H-pyrazol-4-yl)-7-methoxyquinazolin-6-yl)-3-oxabicyclo[3.1.0]hexane-1-carboxamide and (1R,5R)—N-(4-(1-ethyl-3-(2-fluorophenyl)-1H-pyrazol-4-yl)-7-methoxyquinazolin-6-yl)-3-oxabicyclo[3.1.0]hexane-1-carboxamide] the same measures were 1.7 nM, 0.7 nM and 2.7 nM.
As to `C[C@H](O)c1cc2c(-c3cn(CC(F)F)nc3-c3ccccc3)ncnc2cc1O[C@H]1CCOC1` (single isomer, unassigned) [Example 117, (S)-1-(4-(1-(2,2-difluoroethyl)-3-phenyl-1H-pyrazol-4-yl)-7-(((S)-tetrahydrofuran-3-yl)oxy)quinazolin-6-yl)ethan-1-ol or (R)-1-(4-(1-(2,2-difluoroethyl)-3-phenyl-1H-pyrazol-4-yl)-7-(((S)-tetrahydrofuran-3-yl)oxy)quinazolin-6-yl)ethan-1-ol], the IC50 on EGFR L858R came to 1.9 nM; at EGFR (d746-750), 0.6 nM; in experiment [1] it was 3.4 nM.
In the case of `Cn1cc(-c2ncnc3cc(OC(F)F)c(NC(=O)C4(C(F)(F)F)CC4)nc23)c(-c2ccccc2)n1` [Example 465, N-(7-(difluoromethoxy)-4-(1-methyl-3-phenyl-1H-pyrazol-4-yl)pyrido[3,2-d]pyrimidin-6-yl)-1-(trifluoromethyl)cyclopropane-1-carboxamide], the IC50 stood at 4.9 nM on EGFR L858R, 0.8 nM on EGFR (d746-750) and 3.5 nM in experiment [1].
The matching figures for `COc1cc2ncnc(-c3cn(C)nc3-c3ccc(F)cc3)c2cc1NC(=O)C1(CN(C)C)CC1` [Example 211, 1-((dimethylamino)methyl)-N-(4-(3-(4-fluorophenyl)-1-methyl-1H-pyrazol-4-yl)-7-methoxyquinazolin-6-yl)cyclopropane-1-carboxamide]: 2.8 nM, 1.5 nM and 3.3 nM.
The matching figures for `COc1cc2ncnc(-c3cn(C)nc3-c3ccccc3F)c2nc1NC(=O)C1(C(F)F)CC1` [Example 366, 1-(difluoromethyl)-N-(4-(3-(2-fluorophenyl)-1-methyl-1H-pyrazol-4-y1)-7-methoxypyrido[3,2-d]pyrimidin-6-yl)cyclopropane-1-carboxamide]: 1.4 nM, 0.8 nM and 1.4 nM.
The matching figures for `CCOc1cc2ncnc(-c3cn(C)nc3-c3ccccc3F)c2nc1NC(=O)[C@]12C[C@H]1CN(C)C2` (single isomer, unassigned) [Example 401, (1R,5R)—N-(7-ethoxy-4-(3-(2-fluorophenyl)-1-methyl-1H-pyrazol-4-yl)pyrido[3,2-d]pyrimidin-6-yl)-3-methyl-3-azabicyclo[3.1.0]hexane-1-carboxamide or (1S,5S)—N-(7-ethoxy-4-(3-(2-fluorophenyl)-1-methyl-1H-pyrazol-4-yl)pyrido[3,2-d]pyrimidin-6-yl)-3-methyl-3-azabicyclo[3.1.0]hexane-1-carboxamide]: 53 nM, 1.2 nM and 2.3 nM.
`CN(C)CCOc1cc2ncnc(-c3cn(C)nc3-c3ccccc3)c2nc1NC(=O)C1(C(F)(F)F)CC1` [Example 434, N-(7-(2-(dimethylamino)ethoxy)-4-(1-methyl-3-phenyl-1H-pyrazol-4-yl)pyrido[3,2-d]pyrimidin-6-yl)-1-(trifluoromethyl)cyclopropane-1-carboxamide]: the figures for the IC50 (on EGFR L858R; on EGFR (d746-750); in experiment [1]) were 6.8 nM, 2 nM and 3.5 nM, respectively.
For `COc1cc2ncnc(-c3cn(C)nc3-c3ccccc3)c2nc1NC(=O)[C@@]12CN(C)C[C@@H]1C2(F)F` (single isomer, unassigned) [Example 417, (1S,5R)-6,6-difluoro-N-(7-methoxy-4-(1-methyl-3-phenyl-1H-pyrazol-4-yl)pyrido[3,2-d]pyrimidin-6-yl)-3-methyl-3-azabicyclo[3.1.0]hexane-1-carboxamide or (1R,5S)-6,6-difluoro-N-(7-methoxy-4-(1-methyl-3-phenyl-1H-pyrazol-4-yl)pyrido[3,2-d]pyrimidin-6-yl)-3-methyl-3-azabicyclo[3.1.0]hexane-1-carboxamide] the same measures were 1.5 nM, 0.8 nM and 0.9 nM.
For `CCOc1cc2ncnc(-c3cn(C)nc3-c3ccccc3)c2nc1NC(=O)[C@]12C[C@H]1CN(C)C2` (single isomer, unassigned) [Example 378, (1R,5R)—N-(7-ethoxy-4-(1-methyl-3-phenyl-1H-pyrazol-4-yl)pyrido[3,2-d]pyrimidin-6-yl)-3-methyl-3-azabicyclo[3.1.0]hexane-1-carboxamide or (1S,5S)—N-(7-ethoxy-4-(1-methyl-3-phenyl-1H-pyrazol-4-yl)pyrido[3,2-d]pyrimidin-6-yl)-3-methyl-3-azabicyclo[3.1.0]hexane-1-carboxamide] the same measures were 1.3 nM, 0.7 nM and 1.2 nM.
For `COc1cc2ncnc(-c3cn(CC(F)F)nc3-c3ccccc3)c2cc1NC(=O)c1cncs1` [Example 213, N-(4-(1-(2,2-difluoroethyl)-3-phenyl-1H-pyrazol-4-yl)-7-methoxyquinazolin-6-yl)thiazole-5-carboxamide] the same measures were 0.9 nM, 0.6 nM and 0.6 nM.
Turning to `COc1cc2ncnc(-c3c[nH]nc3-c3ccccc3)c2cc1[C@H]1CCCCO1` (single isomer, unassigned) [Example 133, (R)-7-methoxy-4-(3-phenyl-1H-pyrazol-4-yl)-6-(tetrahydro-2H-pyran-2-yl)quinazoline or (S)-7-methoxy-4-(3-phenyl-1H-pyrazol-4-yl)-6-(tetrahydro-2H-pyran-2-yl)quinazoline], the half-inhibitory concentration (IC50) is 1.1 nM at EGFR L858R, 0.5 nM at EGFR (d746-750) and 2.4 nM in experiment [1].
As to `COc1cc2ncnc(-c3cn(C)nc3-c3ccccc3)c2cc1NC(=O)C1(c2cccnc2)CC1` [Example 216, N-(7-methoxy-4-(1-methyl-3-phenyl-1H-pyrazol-4-yl)quinazolin-6-yl)-1-(pyridin-3-yl)cyclopropane-1-carboxamide], the IC50 was 2.1 nM at EGFR L858R, 0.9 nM at EGFR (d746-750) and 3.8 nM in experiment [1].
For `CCOc1cc2ncnc(-c3cn(C)nc3-c3ccc(F)cc3)c2nc1NC(=O)[C@@]12COC[C@@H]1C2` (single isomer, unassigned) [Example 385, (1R,5R)—N-(7-ethoxy-4-(3-(4-fluorophenyl)-1-methyl-1H-pyrazol-4-yl)pyrido[3,2-d]pyrimidin-6-yl)-3-oxabicyclo[3.1.0]hexane-1-carboxamide or (1S,5S)—N-(7-ethoxy-4-(3-(4-fluorophenyl)-1-methyl-1H-pyrazol-4-yl)pyrido[3,2-d]pyrimidin-6-yl)-3-oxabicyclo[3.1.0]hexane-1-carboxamide] the same measures were 1.7 nM, 0.4 nM and 0.7 nM.
On to `CCOc1cc2ncnc(-c3cn(C)nc3-c3ccccc3)c2cc1OC(=O)N1CCO[C@H](C)C1` [Example 73, 7-ethoxy-4-(1-methyl-3-phenyl-1H-pyrazol-4-yl)quinazolin-6-yl (R)-2-methylmorpholine-4-carboxylate], for which the IC50 at EGFR L858R stood at 2.9 nM; at EGFR (d746-750), 1.6 nM; in experiment [1] it was 11.1 nM.
For `COc1cc2ncnc(-c3cn(C)nc3-c3ccccc3)c2nc1NC(=O)C1(C(F)(F)F)CCOCC1` [Example 383, N-(7-methoxy-4-(1-methyl-3-phenyl-1H-pyrazol-4-yl)pyrido[3,2-d]pyrimidin-6-yl)-4-(trifluoromethyl)tetrahydro-2H-pyran-4-carboxamide] the same measures were 4.5 nM, 1.7 nM and 5.7 nM.
For `COc1cc2ncnc(-c3cn(C)nc3-c3ccccc3)c2cc1NC(=O)C12CC(F)(C1)C2` [Example 342, 3-fluoro-N-(7-methoxy-4-(1-methyl-3-phenyl-1H-pyrazol-4-yl)quinazolin-6-yl)bicyclo[1.1.1]pentane-1-carboxamide] the same measures were 6.7 nM, 3.5 nM and 11.2 nM.
As to `CC(C)Oc1cc2ncnc(-c3cn(C)nc3-c3ccccc3)c2cc1[C@@H](C)O` (single isomer, unassigned) [Example 114, (R)-1-(7-isopropoxy-4-(1-methyl-3-phenyl-1H-pyrazol-4-yl)quinazolin-6-yl)ethan-1-ol or (S)-1-(7-isopropoxy-4-(1-methyl-3-phenyl-1H-pyrazol-4-yl)quinazolin-6-yl)ethan-1-ol], the IC50 came out at 2.9 nM on EGFR L858R, 2.3 nM at EGFR (d746-750) and 28.9 nM in experiment [1].

For the origin of these results see patent publication US20250236608A1, “EGFR INHIBITORS” (Blueprint Medicines Corporation, priority 2022, published 2025).
